Experimental data reported in patent US20080221088A1, “3,4-Substituted Thiazoles as Ampk Activators” (priority 2005, published 2008).

What was measured:
AMPK [1] = assay: AMPK activation potential, cell based ELISA with p-AMPK specific antibody, Hep G2 cells; conditions: HepG-2 cells, 24 hours incubation, normalized to metformin at 2 mM as 100%
Procedure: (§1) AMPK activation potential percentages are obtained by normalizing the values obtained at the concentrations in the range of 2 nM-10 μM with that of metformin by considering the values obtained for metformin at 2 mM concentrations as 100%.
(§2) AMPK activation potential of the compounds of formula (I) was evaluated using a cell based ELISA approach. Skeletal muscle (L6 muscle) and hepatoma (Hep G2) liver cells were cultured for 48 hours prior to drug addition at various concentrations. Twenty four (24) hours later, the cells were fixed and the ELISA plate developed following standard protocol using p-AMPK specific antibody.
(§3) Various cell lines such as HepG2 and L6 were revived from glycerol stocks (ATCC). The cells were maintained in a T 75 culture flask-containing medium (DMEM+10% fetal calf serum). On reaching a confluence of 70 to 80%, the cells was seeded in a 96 well plate at a density of 10×10^3 cells per well in DMEM+10% FCS medium. The plates are then incubated at 37° C. with 5% CO2 for 48 hours. Various concentrations of drugs were prepared in DMSO and diluted to required concentration with the medium and incubated at 37° C. with 5% CO2 for 24 hours. Cells were fixed with 4% formaldehyde in PBS for 30 minutes at 25-35° C. and washed three times with PBS containing 0.1% Triton X-100. Endogenous peroxidase was quenched with 0.6% H2O2 in PBS-T for 30 minutes and washed three times in PBS-T. Then the cells were blocked with 10% FCS in PBS-T for 1 hour. The cells were incubated for 8-12 hours with various concentrations of primary antibody in PBS-T containing 5% BSA at 4° C. The cells were then washed three times with PBS-T for 5 minutes and incubated with secondary antibody (HRP conjugated 1:500 in PBS-T with 5% BSA for 1 hour at 25-35° C. The cells were washed three times with PBS-T for 5 minutes and twice with PBS. The cells were incubated with 100 μl TMB/H2O2 color developing solution for 15 minutes and the reaction was stopped with 50 μl of 1M H2SO4. Then the plate was read at 460 nm using ELISA plate reader.
(§4) (AMPK activation potential percentages are obtained by normalizing the values obtained at 10 μM concentration with that of metformin by considering the values obtained for metformin at 2 mM concentrations as 100%).

AMPK [2] = assay: AMPK activation potential, cell based ELISA with p-AMPK specific antibody, L6 muscle cells; conditions: 24 hours incubation, normalized to metformin at 2 mM as 100%
Procedure: as §1, §2, §3, §4

melting point [°C]	SMILES	AMPK % activation (at 10 μM) HepG-2 muscle cells (AMPK [1]) [%]	AMPK % activation (at 10 μM) L6 muscle cells (AMPK [2]) [%]
147 to 148	Cc1ccc(Nc2nc(CC(=O)O)cs2)cc1F [Example 2-e, [2-(3-Fluoro-4-methyl-phenylamino)-thiazol-4-yl]-acetic acid]	–	–
148 to 150	CNC(=O)Cc1csc(Nc2ccc(Cl)c(C(F)(F)F)c2)n1 [Example 3, 2-[2-(4-Chloro-3-trifluoromethyl-phenylamino)-thiazol-4-yl]-N-methyl-acetamide]	102.14	101.20
115 to 118	NNC(=O)Cc1csc(Nc2ccc(Cl)c(C(F)(F)F)c2)n1 [Example 3-b, [2-(4-Chloro-3-trifluoromethyl-phenylamino)-thiazol-4-yl]-acetic acid hydrazide]	–	–
108 to 112	O=C(Cc1csc(Nc2ccc(Cl)c(C(F)(F)F)c2)n1)Nc1ccc(Cl)c(C(F)(F)F)c1 [Example 4, N-(4-Chloro-3-trifluoromethyl-phenyl)-2-[2-(4-chloro-3-trifluoromethyl-phenylamino)-thiazol-4-yl]-acetamide]	–	–
194 to 195	CC(=O)c1ccc(NC(=O)Cc2csc(Nc3ccc(Cl)c(C(F)(F)F)c3)n2)cc1 [Example 4-b, N-(4-Acetyl-phenyl)-2-[2-(4-chloro-3-trifluoromethyl-phenylamino)-thiazol-4-yl]-acetamide]	–	–
178 to 180	O=C(Cc1csc(Nc2ccc(Cl)c(C(F)(F)F)c2)n1)Nc1ccncc1 [Example 4-d, 2-[2-(4-Chloro-3-trifluoromethyl-phenylamino)-thiazol-4-yl]-N-pyridin-4-yl-acetamide]	–	–
196 to 198	O=C(Cc1csc(Nc2ccc(Cl)c(C(F)(F)F)c2)n1)Nc1nccs1 [Example 4-g, 2-[2-(4-Chloro-3-trifluoromethyl-phenylamino)-thiazol-4-yl]-N-thiazol-2-yl-acetamide]	–	–
210 to 211	O=C(Cc1csc(Nc2ccc(Cl)c(C(F)(F)F)c2)n1)N1CCOCC1 [Example 4-i, 2-[2-(4-Chloro-3-trifluoromethyl-phenylamino)-thiazol-4-yl]-1-morpholin-4-yl-ethanone]	–	–
254 to 256	O=C(O)c1csc(Nc2ccc(Cl)c(C(F)(F)F)c2)n1 [Example 5, 2-(4-Chloro-3-trifluoromethyl-phenylamino)-thiazole-4-carboxylic acid]	–	–

Continued, molecule first:

SMILES	melting point [°C]	AMPK % activation (at 10 μM) HepG-2 muscle cells (AMPK [1]) [%]	AMPK % activation (at 10 μM) L6 muscle cells (AMPK [2]) [%]
CCOC(=O)Cc1csc(Nc2ccc(Cl)c(C(F)(F)F)c2)n1 [Example 1, [2-(4-Chloro-3-trifluoromethyl-phenylamino)-thiazol-4-yl]-acetic acid ethyl ester]	150 to 152	89	88.2
CCOC(=O)Cc1csc(Nc2ccc(Br)c(C(F)(F)F)c2)n1 [Example 1-a, [2-(4-Bromo-3-trifluoromethyl-phenylamino)-thiazol-4-yl]-acetic acid ethyl ester]	161 to 164	–	–
O=C(O)Cc1csc(Nc2ccc(Cl)c(C(F)(F)F)c2)n1 [Example 2, [2-(4-Chloro-3-trifluoromethyl-phenylamino)-thiazol-4-yl]-acetic acid]	–	102.69	91.56
Cc1ccc(Nc2nc(CC(=O)O)cs2)cc1Cl [Example 2-b, [2-(3-Chloro-4-methyl-phenylamino)-thiazol-4-yl]-acetic acid]	142 to 144	–	–
O=C(O)Cc1csc(Nc2ccc(Br)c(F)c2)n1 [Example 2-g, [2-(4-Bromo-3-fluoro-phenylamino)-thiazol-4-yl]-acetic acid]	176 to 177	–	–
O=C(O)Cc1csc(Nc2ccc(F)c(C(F)(F)F)c2)n1 [Example 2-h, [2-(4-Fluoro-3-trifluoromethyl-phenylamino)-thiazol-4-yl]-acetic acid]	167 to 169	–	–
Cc1ccc(Nc2nc(CC(=O)O)cs2)cc1C(F)(F)F [Example 2-i, [2-(4-Methyl-3-trifluoromethyl-phenylamino)-thiazol-4-yl]-acetic acid]	154 to 155	–	–
CC(C)(CC(=O)O)c1csc(Nc2ccc(Cl)c(C(F)(F)F)c2)n1 [Example 2-j, 3-[2-(4-Chloro-3-trifluoromethyl-phenylamino)-thiazol-4-yl]-3-methyl-butyricacid]	160 to 165	–	–
O=C(O)Cc1csc(Nc2ccc(Br)c(C(F)(F)F)c2)n1 [Example 2a, [2-(4-Bromo-3-trifluoromethyl-phenylamino)-thiazol-4-yl]-acetic acid]	–	91.3	83.4
NC(=O)Cc1csc(Nc2ccc(Cl)c(C(F)(F)F)c2)n1 [Example 3c, 2-[2-(4-Chloro-3-trifluoromethyl-phenylamino)-thiazol-4-yl]-acetamide]	205 to 207	102.43	88.1
COc1ccc(NC(=O)Cc2csc(Nc3ccc(Cl)c(C(F)(F)F)c3)n2)cc1 [Example 4-a, 2-[2-(4-Chloro-3-trifluoromethyl-phenylamino)-thiazol-4-yl]-N-(4-methoxy-phenyl)-acetamide]	179 to 180	–	–
O=C(Cc1csc(Nc2ccc(Cl)c(C(F)(F)F)c2)n1)Nc1ccc(F)cc1 [Example 4-c, 2-[2-(4-Chloro-3-trifluoromethyl-phenylamino)-thiazol-4-yl]-N-(4-fluoro-phenyl)-acetamide]	146 to 148	–	–
CSc1ccc(NC(=O)Cc2csc(Nc3ccc(Cl)c(C(F)(F)F)c3)n2)cc1 [Example 4-e, 2-[2-(4-Chloro-3-trifluoromethyl-phenylamino)-thiazol-4-yl]-N-(4-methylsulfanyl-phenyl)-acetamide]	151 to 152	–	–
CC(=O)Nc1ccc(NC(=O)Cc2csc(Nc3ccc(Cl)c(C(F)(F)F)c3)n2)cc1 [Example 4-f, N-(4-Acetylamino-phenyl)-2-[2-(4-chloro-3-trifluoromethyl-phenylamino)-thiazol-4-yl]-acetamide]	262 to 263	–	–
O=C(Cc1csc(Nc2ccc(Cl)c(C(F)(F)F)c2)n1)Nc1cccnc1 [Example 4-h, 2-[2-(4-Chloro-3-trifluoromethyl-phenylamino)-thiazol-4-yl]-N-pyridin-3-yl-acetamide]	191 to 192	–	–
O=C(Cc1csc(Nc2ccc(Cl)c(C(F)(F)F)c2)n1)N1CCSCC1 [Example 4-j, 2-[2-(4-Chloro-3-trifluoromethyl-phenylamino)-thiazol-4-yl]-1-thiomorpholin-4-yl-ethanone]	185 to 187	–	–
COc1ccc(CNC(=O)Cc2csc(Nc3ccc(Cl)c(C(F)(F)F)c3)n2)cc1 [Example 4-k, 2-[2-(4-Chloro-3-trifluoromethyl-phenylamino)-thiazol-4-yl]-N-(4-methoxy-benzyl)-acetamide]	65 to 70	–	–
